Ends that are not written are not given here. * marks the point of attachment. pNA = O=[N+]([O-])c1ccc(N*)cc1
T1: activated protease C-E-6XHIS (Homo sapiens, UniProt Q9GZN4)
T1 construct: made in house; host or cells: Sf9 insect cells (baculovirus, pFastBac1)
T1 sequence (Q9GZN4 with tags, fused parts or gaps): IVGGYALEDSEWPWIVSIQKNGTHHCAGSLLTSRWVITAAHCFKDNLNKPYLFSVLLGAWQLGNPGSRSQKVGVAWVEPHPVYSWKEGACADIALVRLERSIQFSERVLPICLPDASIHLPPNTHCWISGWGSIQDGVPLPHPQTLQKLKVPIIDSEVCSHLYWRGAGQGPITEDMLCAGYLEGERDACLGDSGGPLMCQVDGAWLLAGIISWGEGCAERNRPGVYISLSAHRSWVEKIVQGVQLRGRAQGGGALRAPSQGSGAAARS

B1: PFEK-protease C-E-6XHIS zymogen: secreted recombinant zymogen of human serine protease C-E catalytic domain with FLAG, enterokinase site and 6XHIS tag, from Sf9 cells (protein)
chain: MDSKGSSQKSRLLLLLVVSNLLLCQGVVSDYKDDDDVDAAALAAPFDDDDKIVGGYALEDSEWPWIVSIQKNGTHHCAGSLLTSRWVITAAHCFKDNLNKPYLFSVLLGAWQLGNPGSRSQKVGVAWVEPHPVYSWKEGACADIALVRLERSIQFSERVLPICLPDASIHLPPNTHCWISGWGSIQDGVPLPHPQTLQKLKVPIIDSEVCSHLYWRGAGQGPITEDMLCAGYLEGERDACLGDSGGPLMCQVDGAWLLAGIISWGEGCAERNRPGVYISLSAHRSWVEKIVQGVQLRGRAQGGGALRAPSQGSGAAARSSRHHHHHH

What was measured:
[1] = target: T1, activated protease C-E-6XHIS; assay: Chromogenic amidolytic activity assay, release of para-nitroaniline (pNA) from synthetic substrates; type: biochemical; conditions: recombinant activated protease C-E-6XHIS; substrate 500 uM; 10 mM Tris-HCl pH 7.8, 25 mM NaCl, 25 mM imidazole; 37° C., 90 minutes; 405 nm; N.A. = No Activity
Protocol: Eluted protein concentration was determined by a Micro BCA Kit (Pierce, Rockford, Ill.) using bovine serum albumin as a standard. Amidolytic activities of the activated protease C-E-6XHIS was monitored by release of para-nitroaniline (pNA) from the synthetic substrates indicated in Table 1. The chromogenic substrates used in these studies were all commercially available (Bachem California Inc., Torrance, Pa.; American Diagnostica Inc., Greenwich, Conn.; Kabi Pharmacia Hepar Inc., Franklin, Ohio). Assay mixtures contained chromogenic substrates at 500 uM and 10 mM Tris-HCl (pH 7.8), 25 mM NaCl, and 25 mM imidazole. Release of pNA was measured over 90 minutes at 37° C. on a micro-plate reader (Molecular Devices, Menlo Park, Calif.) with a 405 mn absorbance filter. The initial reaction rates (Vmax, mOD/min) were determined from plots of absorbance versus time using Softmax (Molecular Devices, Menlo Park, Calif.). The specific activities (nmole pNA produced/min/μg protein) of the activated protease C-E-6XHIS for the various substrates are presented in Table 1.
Amidolytic activities of the activated serine proteases are monitored by release of para-nitroaniline (pNA) from synthetic substrates that are commercially available (Bachem California Inc., Torrance, Pa.; American Diagnostica Inc., Greenwich, Conn.; Kabi Pharmacia Hepar Inc., Franklin, Ohio). Assay mixtures contain chromogenic substrates in 500 uM and 10 mM TRIS-HCl (pH 7.8), 25 mM NaCl, and 25 mM imidazole. Release of pNA is measured over 120 min at 37° C. on a micro-plate reader (Molecular Devices, Menlo Park, Calif.) with a 405 nm absorbance filter. The initial reaction rates (Vmax, mOD/min) are determined from plots of absorbance versus time using Softmax (Molecular Devices, Menlo Park, Calif.). […] Although in the present case chromogenic activity is monitored by an increase in absorbance, fluorogenic assays or other methods such as FRET to measure proteolytic activity as mentioned above, can be employed. […]

[2] = Chromogenic amidolytic activity of the purified unactivated zymogen; type: biochemical, human; conditions: not cleaved with enterokinase, same chromogenic substrates

Molecule	Specific Activity [1]	chromogenic amidolytic activity [2]
H—D—Lys(CBO)—Pro—Arg—pNA	0.002 ± 0.000 nmole pNA produced/min/μg protein	
H—D—Pro—HHT—Arg—pNA	0.008 ± 0.001 nmole pNA produced/min/μg protein	
Phe-Arg-pNA	0.058 ± 0.006 nmole pNA produced/min/μg protein	
B1		No measurable chromogenic amidolytic activity
